Experiments:
[1] = target: T1, Tyrosine-protein kinase JAK3 (Homo sapiens, UniProt P52333); experiment: Reactions were incubated for 30 minutes at room temperature and stopped by the addition of cold trichloroacetic acid (TCA) to a final concentration of 15%. TCA precipitates were collected onto 384 well phosphocellulose filters (Millipore) using a Platemate to transfer the reaction mixture, washed on an EMBLA plate washer and the filters were quantitated using a TopCount 384-well liquid scintillation counter. […] Compounds were dissolved at 10 mM in dimethylsulfoxide (DMSO) and evaluated at six concentrations, each in triplicate. The final concentration of DMSO in the assay equaled 2%.
T1 sequence (P52333 whole entry): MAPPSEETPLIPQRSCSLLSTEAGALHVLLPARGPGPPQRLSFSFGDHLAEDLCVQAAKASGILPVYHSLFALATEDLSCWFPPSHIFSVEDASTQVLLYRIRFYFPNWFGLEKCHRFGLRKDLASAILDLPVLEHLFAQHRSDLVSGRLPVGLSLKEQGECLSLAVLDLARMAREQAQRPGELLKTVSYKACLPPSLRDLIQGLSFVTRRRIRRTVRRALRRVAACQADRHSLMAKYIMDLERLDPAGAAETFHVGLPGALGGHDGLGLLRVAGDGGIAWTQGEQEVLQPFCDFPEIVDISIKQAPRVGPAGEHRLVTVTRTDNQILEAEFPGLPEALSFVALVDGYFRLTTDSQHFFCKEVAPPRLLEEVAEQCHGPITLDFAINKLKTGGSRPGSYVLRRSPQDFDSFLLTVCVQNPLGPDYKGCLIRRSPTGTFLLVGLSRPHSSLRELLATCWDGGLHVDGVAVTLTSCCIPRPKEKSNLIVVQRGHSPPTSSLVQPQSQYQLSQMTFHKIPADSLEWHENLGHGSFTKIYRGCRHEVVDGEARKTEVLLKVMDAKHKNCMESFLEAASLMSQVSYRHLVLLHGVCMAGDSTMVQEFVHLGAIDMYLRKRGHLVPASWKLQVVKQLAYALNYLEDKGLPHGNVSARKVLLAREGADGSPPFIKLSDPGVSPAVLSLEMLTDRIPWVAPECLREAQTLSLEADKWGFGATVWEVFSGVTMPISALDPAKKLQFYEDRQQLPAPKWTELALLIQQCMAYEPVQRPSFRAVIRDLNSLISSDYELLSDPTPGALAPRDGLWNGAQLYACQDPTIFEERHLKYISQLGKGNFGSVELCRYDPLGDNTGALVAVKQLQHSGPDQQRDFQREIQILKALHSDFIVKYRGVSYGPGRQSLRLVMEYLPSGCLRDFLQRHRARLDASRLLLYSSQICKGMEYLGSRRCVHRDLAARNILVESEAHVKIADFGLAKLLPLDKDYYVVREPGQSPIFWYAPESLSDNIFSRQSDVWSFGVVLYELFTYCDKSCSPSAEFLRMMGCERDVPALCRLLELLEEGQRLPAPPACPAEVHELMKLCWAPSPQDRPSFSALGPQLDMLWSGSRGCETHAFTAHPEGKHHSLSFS

[2] = target: Tyrosine-protein kinase JAK1 (Homo sapiens, UniProt P23458); experiment: Kinase Assay: The assay reactions were performed in U-bottom 384-well plates. The final assay volume was 30 ul prepared from 15 ul additions of enzyme and substrates (fluoresceinated peptide and ATP) and test compounds in assay buffer (20 mM HEPES pH 7.4, 10 mM MgCl2, 25 mM beta-glycerol phosphate, 0.015% Brij35 and 4 mM DTT). The reaction was initiated by the combination of GST-JAK1 enzyme with substrates and test compounds. The reactions were incubated at room temperature for 3 hours and terminated by adding 60 ul of 35 mM EDTA to each sample. Each reaction mixture was analyzed on the Caliper LabChip 3000 (Caliper, Hopkinton, MA) by electrophoretic separation of the fluorescent substrate and phosphorylated product. […] The final concentration of reagents in the assays was: ATP, 100 uM; fluoresceinated peptide.
Tyrosine-protein kinase JAK1, sequence (P23458 whole entry): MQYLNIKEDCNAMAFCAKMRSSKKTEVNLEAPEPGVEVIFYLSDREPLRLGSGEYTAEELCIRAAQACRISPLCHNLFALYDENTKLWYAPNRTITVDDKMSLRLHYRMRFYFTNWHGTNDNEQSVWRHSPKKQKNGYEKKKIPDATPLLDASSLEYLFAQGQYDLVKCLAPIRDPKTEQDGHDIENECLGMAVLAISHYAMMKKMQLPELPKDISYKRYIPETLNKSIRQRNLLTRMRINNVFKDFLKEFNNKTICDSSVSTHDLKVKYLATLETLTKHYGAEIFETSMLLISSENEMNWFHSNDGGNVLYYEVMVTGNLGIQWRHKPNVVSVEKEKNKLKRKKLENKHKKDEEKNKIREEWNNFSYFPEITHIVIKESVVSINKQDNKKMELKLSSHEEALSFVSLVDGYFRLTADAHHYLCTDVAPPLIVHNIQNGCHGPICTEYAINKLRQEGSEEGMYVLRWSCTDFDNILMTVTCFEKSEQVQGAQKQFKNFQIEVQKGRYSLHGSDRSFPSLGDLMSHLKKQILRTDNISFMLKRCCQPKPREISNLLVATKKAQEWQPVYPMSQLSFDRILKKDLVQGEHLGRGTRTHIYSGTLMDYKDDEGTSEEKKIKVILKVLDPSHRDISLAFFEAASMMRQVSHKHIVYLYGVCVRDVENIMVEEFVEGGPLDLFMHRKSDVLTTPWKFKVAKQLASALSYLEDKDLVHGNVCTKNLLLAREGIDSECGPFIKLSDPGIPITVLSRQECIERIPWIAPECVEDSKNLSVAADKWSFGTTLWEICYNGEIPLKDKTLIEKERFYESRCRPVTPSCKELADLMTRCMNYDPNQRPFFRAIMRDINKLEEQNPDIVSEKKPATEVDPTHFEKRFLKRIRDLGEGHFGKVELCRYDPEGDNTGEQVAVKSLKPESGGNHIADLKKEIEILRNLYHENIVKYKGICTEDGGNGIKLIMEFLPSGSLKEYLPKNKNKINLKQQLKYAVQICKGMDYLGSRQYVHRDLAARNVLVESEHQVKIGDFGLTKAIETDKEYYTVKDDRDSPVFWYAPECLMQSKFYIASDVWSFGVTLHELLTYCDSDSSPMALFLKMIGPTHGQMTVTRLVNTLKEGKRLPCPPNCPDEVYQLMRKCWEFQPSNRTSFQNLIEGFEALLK

CC1(C)[C@H](Nc2c(C(N)=O)cnn3cc(-c4ccc(C#N)nc4)cc23)CC[C@]1(C)C(N)=O
IC50 [1]: 1 nM
IC50 [2]: 5.8 nM

Reference: ChEMBL document CHEMBL3638933, “Pyrrolopyridazine JAK3 inhibitors and their use for the treatment of inflammatory and autoimmune diseases” (2014)
